Data reported in patent US11702422B2, “Imidazopyridazines as modulators of IL-17” (Janssen Pharmaceutica NV, priority 2020, dated 2023).
pIC50: −log10 of the molar value.

Key:
[1] = biological target: IL-17A(FLAG-Tagged): IL-17RA(His-Tagged) (Homo sapiens, UniProt Q16552, K93Q); assay: IL-17A(FLAG-Tagged): IL-17RA(His-Tagged) Binding Disruption Eu-HTRF Assay; conditions: IL-17A/IL-17RA binding disruption, simple average if tested more than once
Procedure, shortened: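 IC50 comes from a one-site competition fit of the HTRF 665/620 nm ratio. Compound dilutions (2-fold, 22 points) were held 1 h rt with FLAG-tagged IL-17A dimer, then His-tagged IL-17RA plus Eu-cryptate anti-FLAG and D2 anti-His antibodies were added for 2 h rt.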

[2] = tested on: IL-17A-induced G-CSF production in human normal keratinocyte (NHK); assay: NHK Assay: IL-17A-induced G-CSF production in human normal keratinocytes; format: cell-based; conditions: Homo sapiens, Keratinocyte, 24 h, adult normal human keratinocytes, IL-17A 5 ng/mL, simple average if tested more than once
Procedure, shortened: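 Adult normal human keratinocytes were seeded at 3000-4000 cells/well. Recombinant human IL-17A was pre-incubated 1 h at rt with titrated compound, then added to cells (final 5 ng/mL IL-17A, 0.2% DMSO, 5% FBS) for 24 h at 37° C. Supernatant G-CSF was measured by HTRF against a standard curve to give IC50.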

Sequence of UniProt Q16552 (Q16552 with tags, fused parts or gaps K93Q): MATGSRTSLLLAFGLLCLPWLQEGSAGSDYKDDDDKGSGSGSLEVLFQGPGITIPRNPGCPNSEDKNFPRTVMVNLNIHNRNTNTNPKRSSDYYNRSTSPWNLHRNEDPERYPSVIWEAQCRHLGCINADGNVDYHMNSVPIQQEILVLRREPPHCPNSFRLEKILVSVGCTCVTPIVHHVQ

| SMILES | pIC50 [1] | pIC50 [2] |
| --- | --- | --- |
| O=C(CCC(F)(F)F)N[C@@H](c1cnn2cc([C@@H](NC(=O)c3conc3C(F)(F)F)C3CCC(F)(F)CC3)nc2c1)C1CC1 [Example 101, N—[(S)-[7-[(R)-Cyclopropyl-(4,4,4-trifluorobutanoylamino)methyl]imidazo[1,2-b]pyridazin-2-yl]-(4,4-difluorocyclohexyl)methyl]-3-(trifluoromethyl)isoxazole-4-carboxamide] | 7.41 | 6.80 |
| COCc1nocc1C(=O)N[C@H](c1cn2ncc([C@H](NC(=O)CCC(F)(F)F)C3CC3)cc2n1)C1CCC(F)(F)CC1 [Example 102, N—[(S)-[7-[(R)-Cyclopropyl-(4,4,4-trifluorobutanoylamino)methyl]imidazo[1,2-b]pyridazin-2-yl]-(4,4-difluorocyclohexyl)methyl]-3-(methoxymethyl)isoxazole-4-carboxamide] | 6.92 | 6.57 |
| O=C(CCC(F)(F)F)N[C@@H](c1cnn2cc([C@@H](NC(=O)c3ncnn3C3CC3)C3CCC(F)(F)CC3)nc2c1)C1CC1 [Example 103, 1-Cyclopropyl-N—((S)-(7-((R)-cyclopropyl(4,4,4-trifluorobutanamido)methyl)imidazo[1,2-b]pyridazin-2-yl)(4,4-difluorocyclohexyl)methyl)-1H-1,2,4-triazole-5-carboxamide] | 6.96 | 6.43 |
| O=C(CCC(F)(F)F)N[C@@H](c1cnn2cc([C@@H](NC(=O)c3ccnn3C(F)(F)F)C3CCC(F)(F)CC3)nc2c1)C1CC1 [Example 104, N—((S)-(7-((R)-Cyclopropyl(4,4,4-trifluorobutanamido)methyl)imidazo[1,2-b]pyridazin-2-yl)(4,4-difluorocyclohexyl)methyl)-1-(trifluoromethyl)-1H-pyrazole-5-carboxamide] | 7.05 | 6.26 |
| O=C(CCC(F)(F)F)N[C@@H](c1cnn2cc([C@@H](NC(=O)c3cnnn3CCF)C3CCC(F)(F)CC3)nc2c1)C1CC1 [Example 105, N—((S)-(7-((R)-Cyclopropyl(4,4,4-trifluorobutanamido)methyl)imidazo[1,2-b]pyridazin-2-yl)(4,4-difluorocyclohexyl)methyl)-1-(2-fluoroethyl)-1H-1,2,3-triazole-5-carboxamide] | 6.96 | 6.26 |
| CCn1ncnc1C(=O)N[C@H](c1cn2ncc([C@H](NC(=O)CCC(F)(F)F)C3CC3)cc2n1)C1CCC(F)(F)CC1 [Example 106, N—((S)-(7-((R)-Cyclopropyl(4,4,4-trifluorobutanamido)methyl)imidazo[1,2-b]pyridazin-2-yl)(4,4-difluorocyclohexyl)methyl)-1-ethyl-1H-1,2,4-triazole-5-carboxamide] | 6.89 | 6.08 |
| O=C(CCC(F)(F)F)N[C@@H](c1cnn2cc([C@@H](NC(=O)c3cnn(CCF)n3)C3CCC(F)(F)CC3)nc2c1)C1CC1 [Example 107, N—((S)-(7-((R)-Cyclopropyl(4,4,4-trifluorobutanamido)methyl)imidazo[1,2-b]pyridazin-2-yl)(4,4-difluorocyclohexyl)methyl)-2-(2-fluoroethyl)-2H-1,2,3-triazole-4-carboxamide] | 6.82 | 6.01 |
| O=C(CCC(F)(F)F)N[C@@H](c1cnn2cc([C@@H](NC(=O)c3nnn(CC4CC4)c3C(F)(F)F)C3CCC(F)(F)CC3)nc2c1)C1CC1 [Example 108, N—((S)-(7-((R)-Cyclopropyl(4,4,4-trifluorobutanamido)methyl)imidazo[1,2-b]pyridazin-2-yl)(4,4-difluorocyclohexyl)methyl)-1-(cyclopropylmethyl)-5-(trifluoromethyl)-1H-1,2,3-triazole-4-carboxamide] | 6.04 | < 4.70 |
| O=C(CCC(F)(F)F)N[C@@H](c1cnn2cc([C@@H](NC(=O)c3nnn(CC(F)F)c3C(F)(F)F)C3CCC(F)(F)CC3)nc2c1)C1CC1 [Example 109, N—((S)-(7-((R)-Cyclopropyl(4,4,4-trifluorobutanamido)methyl)imidazo[1,2-b]pyridazin-2-yl)(4,4-difluorocyclohexyl)methyl)-1-(2,2-difluoroethyl)-5-(trifluoromethyl)-1H-1,2,3-triazole-4-carboxamide] | 6.36 | 4.70 |
| O=C(CCC(F)(F)F)N[C@@H](c1cnn2cc([C@@H](NC(=O)c3nnn(C4CC4)c3C(F)F)C3CCC(F)(F)CC3)nc2c1)C1CC1 [Example 110, 1-Cyclopropyl-N—((S)-(7-((R)-cyclopropyl(4,4,4-trifluorobutanamido)methyl)imidazo[1,2-b]pyridazin-2-yl)(4,4-difluorocyclohexyl)methyl)-5-(difluoromethyl)-1H-1,2,3-triazole-4-carboxamide] | 6.39 | < 4.70 |
| CC(C)n1ncc(F)c1C(=O)N[C@H](c1cn2ncc([C@H](NC(=O)CCC(F)(F)F)C3CC3)cc2n1)C1CCC(F)(F)CC1 [Example 111, N—((S)-(7-((R)-Cyclopropyl(4,4,4-trifluorobutanamido)methyl)imidazo[1,2-b]pyridazin-2-yl)(4,4-difluorocyclohexyl)methyl)-4-fluoro-1-isopropyl-1H-pyrazole-5-carboxamide] | 7.28 | 6.39 |
| O=C(CCC(F)(F)F)N[C@@H](c1cnn2cc([C@@H](NC(=O)c3cnnn3CCCF)C3CCC(F)(F)CC3)nc2c1)C1CC1 [Example 112, N—((S)-(7-((R)-Cyclopropyl(4,4,4-trifluorobutanamido)methyl)imidazo[1,2-b]pyridazin-2-yl)(4,4-difluorocyclohexyl)methyl)-1-(3-fluoropropyl)-1H-1,2,3-triazole-5-carboxamide] | 6.92 | 6.80 |
| O=C(CCC(F)(F)F)N[C@@H](c1cnn2cc([C@@H](NC(=O)c3cnn(CCCF)n3)C3CCC(F)(F)CC3)nc2c1)C1CC1 [Example 113, N—((S)-(7-((R)-Cyclopropyl(4,4,4-trifluorobutanamido)methyl)imidazo[1,2-b]pyridazin-2-yl)(4,4-difluorocyclohexyl)methyl)-2-(3-fluoropropyl)-2H-1,2,3-triazole-4-carboxamide] | 6.37 | 6.40 |
| CC(=O)N(C)CCn1ncc(C(=O)N[C@H](c2cn3ncc([C@H](NC(=O)CCC(F)(F)F)C4CC4)cc3n2)C2CCC(F)(F)CC2)n1 [Example 114, N—((S)-(7-((R)-Cyclopropyl(4,4,4-trifluorobutanamido)methyl)imidazo[1,2-b]pyridazin-2-yl)(4,4-difluorocyclohexyl)methyl)-2-(2-(N-methylacetamido)ethyl)-2H-1,2,3-triazole-4-carboxamide] | 5.68 | 6.43 |
| CC(C)n1nccc1C(=O)N[C@H](c1nc2cc([C@H](NC(=O)CCC(F)(F)F)C3CC3)cnn2c1F)C1CCC(F)(F)CC1 [Example 118, N—((S)-(7-((R)-Cyclopropyl(4,4,4-trifluorobutanamido)methyl)-3-fluoroimidazo[1,2-b]pyridazin-2-yl)(4,4-difluorocyclohexyl)methyl)-1-isopropyl-1H-pyrazole-5-carboxamide] | 6.60 | 6.43 |
| CC(C)n1nccc1C(=O)N[C@H](c1cn2ncc([C@H](NC(=O)CC3CC(F)(F)C3)C3CC3)cc2n1)C1CCC(F)(F)CC1 [Example 119, N—((S)-(7-((R)-Cyclopropyl(2-(3,3-difluorocyclobutyl)acetamido)methyl)imidazo[1,2-b]pyridazin-2-yl)(4,4-difluorocyclohexyl)methyl)-1-isopropyl-1H-pyrazole-5-carboxamide] | 7.02 | 7.44 |
| Cc1nocc1C(=O)N[C@H](c1cn2ncc([C@H](NC(=O)CC3CC(F)(F)C3)C3CC3)cc2n1)C1CCC(F)(F)CC1 [Example 120, N—((S)-(7-((R)-Cyclopropyl(2-(3,3-difluorocyclobutyl)acetamido)methyl)imidazo[1,2-b]pyridazin-2-yl)(4,4-difluorocyclohexyl)methyl)-3-methylisoxazole-4-carboxamide] | 7.32 | 6.82 |
| O=C(CC1CC(F)(F)C1)N[C@@H](c1cnn2cc([C@@H](NC(=O)c3conc3C3CC3)C3CCC(F)(F)CC3)nc2c1)C1CC1 [Example 125, 3-Cyclopropyl-N—((S)-(7-((R)-cyclopropyl(2-(3,3-difluorocyclobutyl)acetamido)methyl)imidazo[1,2-b]pyridazin-2-yl)(4,4-difluorocyclohexyl)methyl)isoxazole-4-carboxamide] | 7.43 | 7.11 |
| CCn1nccc1C(=O)N[C@H](c1cn2ncc([C@H](NC(=O)CC3CC(F)(F)C3)C3CC3)cc2n1)C1CCC(F)(F)CC1 [Example 126, N—((S)-(7-((R)-Cyclopropyl(2-(3,3-difluorocyclobutyl)acetamido)methyl)imidazo[1,2-b]pyridazin-2-yl)(4,4-difluorocyclohexyl)methyl)-1-ethyl-1H-pyrazole-5-carboxamide] | 7.34 | 7.08 |
| CCn1nccc1C(=O)N[C@H](c1cn2ncc([C@H](NC(=O)CCC(F)(F)F)C3CC3)cc2n1)C1CCC(F)(F)CC1 [Example 127, N—((S)-(7-((R)-Cyclopropyl(4,4,4-trifluorobutanamido)methyl)imidazo[1,2-b]pyridazin-2-yl)(4,4-difluorocyclohexyl)methyl)-1-ethyl-1H-pyrazole-5-carboxamide] | 7.40 | 7.00 |
| Cc1nonc1C(=O)N[C@H](c1cn2ncc([C@H](NC(=O)CC3CC(F)(F)C3)C3CC3)cc2n1)C1CCC(F)(F)CC1 [Example 142, N—((S)-(7-((R)-Cyclopropyl(2-(3,3-difluorocyclobutyl)acetamido)methyl)imidazo[1,2-b]pyridazin-2-yl)(4,4-difluorocyclohexyl)methyl)-4-methyl-1,2,5-oxadiazole-3-carboxamide] | 7.47 | 6.85 |
